Data on 88 compounds can be found in a melting point compilation (Tetko et al.; mined from patent text by program, amines drawn as free bases though some values may be those of a salt).

A value given as a limit tells only on which side of the number the result lay.

In general, melting point refers to the temperature of the solid-liquid transition.

Take `COc1ccc(C=Cc2c(Cl)cncc2Cl)c2c1OC1(CCCC1)O2`: the melting point was 100 to 101 °C.

As for `COCOc1ccc(C=CC(=O)c2c(OC)cc(OC)c(CC=C(C)C)c2O)cc1OC`, the melting point is 126 to 127 °C.

`CCN(CC)CCNC(=O)c1cc(Cl)c(N)cc1OCC(OC)OC`: the melting point was in the range of 64 to 67 °C.

The compound `CCOC(=O)C(=O)CC(=O)/C=C/c1ccc(Cl)cc1F` returned a melting point of 84 to 85 °C.

`CONC(=O)NC1CCC(=O)c2ccccc21` (stereo not drawn) registered a melting point of 148 to 151 °C.

Take `Cc1c(-c2ccccc2)oc2c(COCCCl)cccc2c1=O`: the melting point was 102 to 103 °C.

In the case of `CSCn1c(C(F)(F)F)nc2c(Br)cc(C(F)(F)F)cc21`, the melting point fell in the range of 56 to 60 °C.

For the compound `Cc1ccc(S(=O)(=O)N(C)SN(c2cc(C(F)(F)F)ccc2Cl)c2c([N+](=O)[O-])cc([N+](=O)[O-])cc2C(F)(F)F)cc1`, the melting point lay in the range of 142 to 144 °C.

The compound `OC1CSC(Oc2ccc(-c3cncc(F)c3)nc2)C(O)C1O` (stereo not drawn) registered a melting point of 207 to 217 °C.

The compound `O=C(CCN1CCC(C(O)(c2ccc(F)cc2)c2ccc(F)cc2)CC1)Nc1ccccc1` showed a melting point of 190 to 192 °C.

The compound `COc1ccc(C(=O)O)c2ccc(C(F)(F)F)nc12` displayed a melting point of 248 to 249 °C.

In turn, `CCCCCCCCCCCCCCCCCC(=O)CO` showed a melting point of 78 to 80 °C.

The compound `CSC(c1ccc(Cl)cc1)c1ccc(Cl)cc1` registered a melting point of 56 to 57 °C.

Compound `CCOC(=O)c1ocnc1C` had a melting point of 31 to 33 °C.

`Nc1nc2c(ncn2CCC(CO)COC(=O)c2ccccc2)c(=O)[nH]1` (stereo not drawn) displayed a melting point of 156 to 168 °C.

`COc1ccc(-c2cc(F)c3c(c2)CC(CN)O3)cc1` (stereo not drawn) displayed a melting point above 250 °C.

As for `Cc1nc(-c2cccc(I)c2)no1`, the melting point lay in the range of 90 to 91.5 °C.

Turning to `CS(=O)(=O)c1cc(C(=O)O)c(NCc2ccccc2)cc1Cl`, the melting point is 179 °C.

In the case of `Nc1nc(-c2cccc3ccccc23)co1`, the melting point is 155 to 162 °C.

Consider `COc1ccc(C(=O)Oc2ccccc2)cc1Nc1ccccc1`, for which the melting point was 130 to 131 °C.

`CCc1cccc2c3c([nH]c12)C(CC)(CCOC)OCC3` (stereo not drawn) returned a melting point of 125 to 126 °C.

For `CSc1cc(SC)c(SC)cc1SC`, the melting point was in the range of 127 to 129 °C.

For the compound `CNc1nc(-c2cccc(CCc3ccccc3)c2)c2cc(OC)c(OC)cc2n1`, the melting point lay in the range of 95 to 97 °C.

`COC(=O)c1ccc(C(=O)Nc2ccccc2)cc1` returned a melting point of 189 to 190 °C.

In turn, `CCn1cc(CN(C(=O)C2CCc3c(O)cccc32)c2ccc(C(C)C)cc2)cn1` (stereo not drawn) displayed a melting point of 205 to 206 °C.

In turn, `CC(=O)OCCn1cncc1[N+](=O)[O-]` displayed a melting point of 61 to 62 °C.

As for `CCOC(=O)c1nc2c(=O)[nH]c3cc(C(F)(F)F)ccc3n2c1Cn1cnc(Cl)c1Cl`, the melting point was 240 °C.

For `COC(=O)[C@@H]1CCCCN1S(=O)(=O)c1ccc(Cl)c(COc2cccc3c(-n4ccnc4)cc(C)nc23)c1Cl`, the melting point was found to be 81 °C.

The compound `Nc1ncnc2c1nc(O)n2Cc1ccc(F)cc1` displayed a melting point of 270 to 272 °C.

`ON=C1c2ccccc2-c2c1c(-n1ccnc1)nc1ccc(Br)cc21` displayed a melting point of 268 to 271 °C.

On to `CCCCCC(=O)C=CI`, for which the melting point was in the range of 35 to 37 °C.

`CCC(=O)c1ccc(-c2ncccc2S(=O)(=O)Nc2ncc(C)nc2OC)cc1` came in with a melting point of 126 to 127 °C.

The compound `O=C(NC(CO)(CO)CO)c1cc2ccnc(Cl)c2[nH]1` returned a melting point of 218 to 220 °C.

Compound `O=C(CC1c2ccccc2C(=O)N1C1CCCCC1)N1CCCCC1` (stereo not drawn) registered a melting point of 158 to 160 °C.

In the case of `COc1cc(NC(=O)Nc2c(-c3ccccc3Cl)c3cc(C)c(C)cc3n(C)c2=O)cc(OC)c1OC(C)=O`, the melting point was in the range of 233 to 234 °C.

As for `COC(=O)C1CC(=O)N(Cc2ccccc2)C1c1c(Cl)cccc1Cl` (stereo not drawn), the melting point was 97 to 102 °C.

As for `CCOCc1nc2c(N)nc3cccnc3c2n1Cc1cc(-c2ccc(F)cc2)no1`, the melting point fell in the range of 190 to 191 °C.

As to `CS(=O)(=O)CC(=O)CCc1ccccc1`, the melting point is 97.6 to 98.4 °C.

In turn, `COC(=O)C1=C(C(OC)OC)NC(C)=C(C(=O)OC(C)C)C1c1ccccc1[N+](=O)[O-]` (stereo not drawn) returned a melting point of 143 to 145 °C.

Compound `CCOC(=O)Cc1c(C(=O)OCC)[nH]c2ccccc12` showed a melting point of 75 to 78 °C.

Take `CN(c1ccc(OCc2ccc(OC(F)(F)F)cc2)cc1)C1CCN(c2ccc(OC[C@H]3CCn4cc([N+](=O)[O-])nc4O3)cc2)CC1`: the melting point fell in the range of 142 to 144 °C.

For the compound `Cc1nc(C(F)(F)F)ccc1C(=O)c1c(S(C)=O)noc1C1CC1` (stereo not drawn), the melting point is 96 to 97 °C.

Regarding `CSc1nccc(C)c1NC(=O)CCCCCCCCSc1nc2ccccc2s1`, the melting point is 88 to 90 °C.

In the case of `CCc1nn(CCCO)c(CC)c1Cc1cc(Cl)cc(Cl)c1`, the melting point was 56 to 59 °C.

Turning to `Cc1cccc(OC(=O)c2ccccc2)c1`, the melting point is 51 to 54 °C.

Compound `O=C(O)c1cc([N+](=O)[O-])ccc1Nc1ccc(CCCc2ccc(Cl)c(Cl)c2)cc1` displayed a melting point of 153 to 155 °C.

With `O=C(OCc1ccccc1)C(O)P(=O)(OCc1ccccc1)OCc1ccccc1` (stereo not drawn), the melting point fell in the range of 67 to 68 °C.

The compound `CCOC(=O)c1c(C)nc2c(ncn2C)c1OCCC(C)C` registered a melting point of 64 to 66 °C.

The compound `O=C(O)c1cc2cc(Cl)ccc2nc1N[C@@H](Cc1ccc([N+](=O)[O-])cc1)C(=O)O` returned a melting point of 174 to 176 °C.

Consider `Cc1ccc(-c2cc(-c3ccccc3)c(-c3ccccc3)s2)cc1`, for which the melting point was 110 to 112 °C.

In turn, `CC(C)OCN1CCN(Cc2ccc(Cl)nc2)C1=NC#N` yielded a melting point of 85 to 87 °C.

On to `CC(C)(Oc1ccc(Cl)cc1)C(=O)Cn1cncn1`, for which the melting point fell in the range of 101 to 103 °C.

In turn, `Cc1ncc(CN)c(N)n1` had a melting point of 155 °C.

`CC(C)(Cl)C(=O)c1ccc(C(Br)c2ccc(C(=O)C(C)(C)Cl)cc2)cc1`: the melting point amounted to 93 °C.

Regarding `O=C(CCCN1CCCCC1)c1ccc2oc3ccc(C(=O)CCCN4CCCCC4)cc3c(=O)c2c1`, the melting point lay in the range of 93 to 95 °C.

The compound `O=C(O)c1cc2ccccc2cc1NC(=O)C(CS)Cc1ccccc1` (stereo not drawn) showed a melting point of 180 to 182 °C.

`CNC(=NO)Nc1ccccc1`: the melting point was 95 to 96 °C.

Take `Cc1cc(F)ccc1-c1nc(NCCO)nc2c1CCC(=O)N2c1ccccc1F`: the melting point was in the range of 120 to 124 °C.

`CCOC(=O)c1ccc(-c2ccnc(Nc3cc(OC)c(OC)c(OC)c3)n2)cc1` had a melting point of 181 to 182 °C.

The compound `COC(=O)c1cc2c(OC)ccc(OC)c2[nH]1` yielded a melting point of 145 to 146 °C.

Take `Cc1noc(NS(=O)(=O)c2ccccc2-c2ccc(-c3ncco3)cc2CN2CCc3ccccc3C2=O)c1C`: the melting point fell in the range of 127 to 135 °C.

As for `CCCCCCCCCCCCCCOc1cc(OCCCOc2ccc(OCc3ccccc3)cc2)cc(C(=O)OC)c1`, the melting point lay within 69 to 70 °C.

With `O=C(c1ccc(F)cc1F)N1Cc2cccnc2Nc2ccccc21`, the melting point was in the range of 161 to 163 °C.

Turning to `Cc1ccc(CCC(=O)c2c(O)c3cccnc3n(-c3ccccc3)c2=O)cc1`, the melting point was 232 to 234 °C.

In turn, `CNC(=O)c1ccc(C=CC(=O)Nc2cccc(-c3ccc(C)c(COc4cccc5ccc(C)nc45)c3C)c2)cc1` came in with a melting point of 234 to 238 °C.

`C#CCc1nc(-c2ccc(C)cc2)oc1C` showed a melting point of 65 to 68 °C.

Compound `COCOC(C(Cc1ccccc1)NC(=O)[C@@H](NC(=O)OCc1ccccc1)C(C)C)C(Cc1ccccc1)NC(=O)[C@@H](NC(=O)OCc1ccccc1)C(C)C` (stereo partly drawn) registered a melting point of 197 to 198 °C.

In turn, `COc1cc2ncnc(-c3nnn[nH]3)c2cc1OC` had a melting point of 207 °C.

Turning to `COc1cc2cc3c(Nc4ccc(Sc5nccn5C)c(Cl)c4)c(C#N)cnc3cc2cc1OCCCCl`, the melting point was above 300 °C.

`Cc1oc(-c2ccccc2)nc1COc1ccc(COc2ccc(O)cc2CC(=O)O)cc1` displayed a melting point of 194 to 195 °C.

The compound `CCCCNC(=O)[C@H](C)C[C@H](O)[C@H](CC1CCCCC1)NC(=O)[C@H](Cc1cscn1)NC(=O)[C@@H](CC(=O)N1CCOCC1)Cc1ccc(OC)cc1` gave a melting point of 130 to 132 °C.

As to `COC1(c2cc(F)cc(S(=O)(=O)c3ccc4c(c3)CC/C4=N\O)c2)CCOCC1`, the melting point lay within 225 to 226 °C.

Regarding `CC(C)(C)c1cc(CCC(=O)O)cc(-n2nc3ccc(Sc4ccccc4)cc3n2)c1O`, the melting point was 154 to 156 °C.

Compound `CCSc1nc(C)[nH]c1CO` returned a melting point of 153 °C.

On to `O=C1C2C[C@@H](OCc3ccccc3)CN2C(=O)N1c1ccc([N+](=O)[O-])c2ccccc12` (stereo partly drawn), for which the melting point is 120 to 122 °C.

On to `CN1CCN(c2ccc(Br)c3c2C[C@H](NC(=O)c2ccc(C(F)(F)F)cc2)CC3)CC1`, for which the melting point is 229 to 230 °C.

For the compound `COC(=O)c1ccc(C(=O)c2cccc3ccccc23)n1C`, the melting point was 80 °C.

Regarding `CN1C(=O)C(c2ccccc2)(c2ccncc2)N=C1N` (stereo not drawn), the melting point lay within 154 to 155 °C.

Turning to `COC=C(C(=O)OC)n1ccc2ccc(-c3nccc(-c4ccccc4)n3)cc21`, the melting point turned out to be 85 °C.

On to `CON1CCC2(CC1)C(=O)C(c1c(C)cc(C)cc1C)([N+](=O)[O-])C(=O)N2C` (stereo not drawn), for which the melting point lay in the range of 127 to 129 °C.

Regarding `NC(=O)c1c(-c2cccc(F)c2)c(Cl)n2c1CN(C(=O)N[C@H]1CC[C@H](O)CC1)CC2`, the melting point is 251 to 253 °C.

Compound `CN(C)C(=O)CCO[C@H]1CC[C@H](N(C)S(=O)(=O)c2ccc(C(F)(F)F)cc2)CC1` yielded a melting point of 88 °C.

The compound `COc1cc2oc(=O)c3c(c2cc1OC)CCN(Cc1ccc(Cl)cc1)C3` returned a melting point of 173 to 175 °C.

`O=c1c2cc(SC(F)(F)F)ccc2ccn2cccc12` showed a melting point of 155 to 159 °C.

The compound `CCCC(=O)c1cnc2ccccc2c1Nc1ccccc1OC` returned a melting point of 167 to 168 °C.

As for `Cc1cc(O)c(SCC2CCCCC2)c(=O)o1`, the melting point was in the range of 81.5 to 83 °C.

`C=C1C(O)C(CO)OC1n1cc(I)c(N)nc1=O` (stereo not drawn) registered a melting point of 159 to 161 °C.

`C#CCN(C(=O)c1cnc(Cl)nc1C(F)(F)F)S(=O)(=O)c1cccc(Cl)c1` yielded a melting point of 106 to 107 °C.
